These results are taken from publication PMC6856721, “Discovery of a Novel DNA Gyrase-Targeting Antibiotic through the Chemical Perturbation of Streptomyces venezuelae Sporulation” (Cell Chemical Biology, 2019).

Like-named read-outs stand apart in the source and are kept apart here.

One experiment has as its system S. venezuelae. Kind of experiment: S. venezuelae sporulation inhibition disk diffusion assay (whi phenotype, SEM). The format is cell-based, Streptomyces venezuelae. The settings on record: for Sporulation inhibition: disk with 10 μL antibiotic, 48 h, white halo in sub-MIC region; for Aerial hyphae septation by SEM: lawn immediately adjacent to the zone of inhibition. How it is done: A lawn of S. venezuelae spores was plated on MYM agar plates and allowed to dry. For the initial screen, 2 μL of each molecule at 2.5 mM was spotted directly to the agar plate. For known antibiotics or follow-up screening, 10 μL of molecule was added to a drug disk, allowed to dry, and placed on the agar plate. The S. venezuelae plate was incubated at 30°C for 48 hours and photographed. The whi phenotype was identified by eye. Hits were selected based on their ability to induce a whi phenotype at sub-inhibitory concentrations and scored by eye on the size of the induced whi region and the zone of inhibition.
To prepare samples for SEM, the agar plate containing a lawn of S. venezuelae was cut at the edge of the zone of inhibition and fixed with 2% glutaraldehyde in 0.1% sodium cacodylate buffer followed by sputter coating with gold. Images were obtained and processed using a FEI XL30 ESEM. The contrast of the resulting images was adjusted to highlight the appearance or lack of spore formation.
(In general: Agar diffusion results depend on both activity and mobility in agar.)

For a further experiment, the system named is S. aureus. Kind of experiment: Minimum inhibitory concentration, broth dilution, S. aureus strains. The format is cell-based, Staphylococcus aureus. The settings on record: Staphylococcus aureus. How it is done: The minimum inhibitory concentration (MIC) defines the lowest concentration of a compound required to inhibit the growth. A single colony of the bacteria being tested was grown in 5 mL of liquid growth media. Following overnight growth, the culture was diluted 100-fold into fresh media and incubated at 37°C until the cells reached mid-log phase (OD600 of 0.3 to 0.5). The cells were diluted 10,000-fold into fresh media and the MIC determined for each of the strains by adding 2 μL of the diluted compound to 198 μL of the diluted cells in a clear 96-well plate. The plates were incubated at 37°C overnight and the optical density at 600 nm was measured for each well. All MIC assays were performed in triplicate.
A general note: Dilution methods test growth across graded concentrations, often in twofold steps.

Experiment [1] deals with T1, S. aureus gyrase GyrA S84L (Staphylococcus aureus, UniProt P0A0K8+P20831, S84L).
T1 construct: purchased Inspiralis Inc. SAAS84L01
Briefly: Supercoiling inhibition of S. aureus gyrase mutant GyrA S84L. The format is biochemical. The following applies: S. aureus gyrase. How it is done: 1 U of DNA gyrase was incubated with 0.5 μg of relaxed pBR322 DNA in a 30 μl reaction at 37°C for 30 minutes under the following conditions: 35 mM Tris.HCl (pH 7.5), 24 mM KCl, 4 mM MgCl2, 2 mM DTT, 1.8 mM Spermidine, 1 mM ATP, 6.5% (w/v) glycerol and 0.1 mg/mL BSA. Each reaction was stopped by the addition of 30 μl chloroform/iso-amyl alcohol (24:1) and 20 μl Stop Dye (40% sucrose, 100 mM Tris.HCl (pH 7.5), 10 mM EDTA, 0.5 μg/mL bromophenol blue), before being loaded on a 1.0% TAE (Tris.acetate […], EDTA […]) agarose gel. Gels run at 90 V for 2 hours. Bands were visualized by ethidium staining for 20 minutes and destaining in water for 20 minutes. Gels were scanned using a gel documentation system (GeneGenius, Syngene, Cambridge, UK) and percent inhibition levels obtained with gel scanning software (GeneTools, Syngene, Cambridge,UK).
As for E. coli gyrase except assay conditions were: 40 mM HEPES. KOH (pH 7.6), 10 mM magnesium acetate, 10 mM DTT, 2 mM ATP, 500 mM potassium glutamate, and 0.05 mg/mL BSA. Gels run at 80 V for 3 hours.

In the next experiment the target is T2, S. aureus gyrase (Staphylococcus aureus, UniProt P0A0K8+P20831).
T2 construct: purchased Inspiralis Inc. SAS4001 (supercoiling kit); SAGC001 (cleavage assay kit)
Briefly: S. aureus gyrase relaxation. The format is biochemical. The settings on record: ATP-independent. How it is done: 1 U of gyrase was incubated with 0.5 μg of supercoiled pBR322 DNA in a 30 μL reaction at 37°C for 60 minutes under the following conditions: 50 mM Tris.HCl (pH 7.5), 5 mM MgCl2,5 mM DTT, 350 mM potassium glutamate, and 0.05 mg/mL albumin. Each reaction was stopped by the addition of 30 μL chloroform/iso-amyl alcohol (24:1) and 20 μl Stop Dye, before being loaded on a 1.0% TAE agarose gel. Gels run at 80 V for 2 hours.

[2] abbreviates: ATCC29213, S. aureus parent strain (ATCC 29213), read-out: MIC.
Where [3] appears, read: EN-7-resistant S. aureus mutants.

On to `Oc1cc(Cl)ccc1Oc1ccc(Cl)cc1Cl` [Triclosan, triclosan], for which, in the experiment with S. venezuelae, the Sporulation inhibition entry is “−”.

With `NC[C@H]1O[C@H](O[C@H]2[C@H](O)[C@@H](O[C@H]3O[C@H](CO)[C@@H](O)[C@H](N)[C@H]3O)[C@H](N)C[C@@H]2N)[C@H](O)[C@@H](O)[C@@H]1O` [Kanamycin, kanamycin], in the experiment on S. venezuelae, the Sporulation inhibition entry is listed as “−” and the “Aerial hyphae septation by SEM” value is on record as “septated aerial hyphae”. Take `N#CC(C#N)=NNc1cccc(Cl)c1` [CCCP, carbonyl cyanide m-chlorophenyl hydrazone]: the Sporulation inhibition result in the experiment with S. venezuelae is “−”. As for `CN[C@H](CC(C)C)C(=O)N[C@H]1C(=O)N[C@@H](CC(N)=O)C(=O)N[C@H]2C(=O)N[C@H]3C(=O)N[C@H](C(=O)N[C@H](C(=O)O)c4cc(O)cc(O)c4-c4cc3ccc4O)[C@H](O)c3ccc(c(Cl)c3)Oc3cc2cc(c3O[C@@H]2O[C@H](CO)[C@@H](O)[C@H](O)[C@H]2O[C@H]2C[C@](C)(N)[C@H](O)[C@H](C)O2)Oc2ccc(cc2Cl)[C@H]1O` [Vancomycin, vancomycin], in the experiment on S. venezuelae, the Sporulation inhibition result is listed as “−”. Turning to `CO[C@H]1/C=C/O[C@@]2(C)Oc3c(C)c(O)c4c(O)c(c(/C=N/N5CCN(C)CC5)c(O)c4c3C2=O)NC(=O)/C(C)=C\C=C\[C@H](C)[C@H](O)[C@@H](C)[C@@H](O)[C@@H](C)[C@H](OC(C)=O)[C@@H]1C` [Rifampicin, rifampicin], in the experiment with S. venezuelae, the Sporulation inhibition result was “−” and the “Aerial hyphae septation by SEM” value is reported as “septated aerial hyphae”. `O=c1ccc2ncc(=O)n3c2n1C[C@H]3CN1CCC(NCc2cc3c(cn2)OCCC3)CC1` [gepotidacin, reference compound]: the MIC is 0.5 µM in the experiment on S. aureus (ATCC29213, S. aureus ATCC 29213 (wild-type, parent strain), read-out: MIC) and 32 µM against S. aureus (EN-7-resistant S. aureus strains with GyrB D437N (mut-7, mut-8)). For bleomycin, in the experiment with S. venezuelae, the Sporulation inhibition result is recorded as “+”.

Take `CO[C@@]12[C@H](COC(N)=O)C3=C(C(=O)C(C)=C(N)C3=O)N1C[C@@H]1N[C@@H]12` [Mitomycin C, mitomycin C]: in the experiment on S. venezuelae, the Sporulation inhibition result is “+” and the “Aerial hyphae septation by SEM” value is “do not show any aerial hyphae septation”. Regarding `COc1c(N2C[C@@H]3CCCN[C@@H]3C2)c(F)cc2c(=O)c(C(=O)O)cn(C3CC3)c12` [moxifloxacin, reference compound], in experiment [1], the “Susceptibility of gyrase mutant GyrA S84L” value is “less susceptible”. The “Inhibition of gyrase-induced DNA relaxation” value at S. aureus gyrase is “inhibit”. In the case of `O=C(O)c1cn(C2CC2)c2cc(N3CCNCC3)c(F)cc2c1=O` [ciprofloxacin, reference compound], the Sporulation inhibition entry in the experiment on S. venezuelae is “+”. For the same molecule, the “Aerial hyphae septation by SEM” value in the experiment with S. venezuelae was “do not show any aerial hyphae septation”. Further, the MIC in the experiment on S. aureus (setting [2]) and against S. aureus (setting [3]) was 0.2 µg/mL in each case. `CO[C@@H]1[C@@H](OC(N)=O)[C@@H](O)[C@H](Oc2ccc3c(O)c(NC(=O)c4ccc(O)c(CC=C(C)C)c4)c(=O)oc3c2C)OC1(C)C` [novobiocin, reference compound]: the Sporulation inhibition entry in the experiment on S. venezuelae was “+”. Further, the minimal inhibitory concentration (MIC) in the experiment on S. aureus (setting [2]) and against S. aureus (setting [3]) was 0.06 µg/mL throughout.

The MIC is the least concentration at which growth counts as inhibited.
